Tested on: SBLF9 fibroblasts
Assay: Mitochondrial ROS imaging (MitoSOX), SBLF9 fibroblasts
Format: cell-based
Conditions: 5 µM
Method: The cells were re-suspended in RPMI 1640 medium containing 5% FBS, 1% L-glutamine and 1% penicillin/streptomycin (100 µL). Finally, the fluorescence of live cells (λex = 488 nm, λem = 530 nm) in the suspensions was determined by using flow cytometry (Figure […]
Figure S62. Fluorescence of DAF-FM diacetate-loaded A2780 cells treated either with 2c or the carrier. *: p<0.05, Student’s t test.
Effect of prodrug 2c on mitochondrial reactive oxygen species in representative cancer (A2780) and normal cells (SBLF9 fibroblasts) (Figure 6)
A2780 cells were seeded in of RPMI 1640 medium (500 µL) supplemented with 5% FBS, 1% L-glutamine, and 1% penicillin/streptomycin on a 35 mm imaging dish (µ- Dish 35 mm, high, ibidi GmbH, Germany) at a cell density of 80 cells/µL and allowed to attach to the surface of the dish for overnight. […]
The fluorescence images were taken with a Zeiss Axio Vert.A1 fluorescence microscope […]
4x10^4 cells per well. […] Cell viability was assessed by quantification of ATP (CellTiter Glo®, Promega) 48 hours after drug application.
Luminescence was measured on a Tecan Infinite F200 Microplate Reader. Viability was calculated as % of solvent (DMSO) treated control. […]

Compound: CC1(C)OB(c2ccc(COC(=O)N(Cc3cn(Cc4ccc(Cn5cc(Cc6ccccc6)nn5)cc4)nn3)[c-]3cccc3)cc2)OC1(C)C.[Fe+2].c1cc[cH-]c1 [2c]
- mROS level in normal cells: only a slight increase of mROS level
